Key:
CDK12 wt/CycK = biological target: T1, CDK12 wt/CycK (Homo sapiens, UniProt Q9NYV4); assay: Radiometric protein kinase assay (33PanQinase), assay condition 2, thiol containing conditions; assay type: biochemical; settings: thiol containing conditions (1.2 mM DTT), ATP 0.3 μM
T1 construct: either as full-length or enzymatically active fragments
Procedure: Example 1—Assay condition 2 (thiol containing conditions)
Objective: The IC50 profile of test compounds was determined using protein kinases. IC50 values were measured by testing 10 concentrations (1×10^−04M, 3×10^−05M, 1×10^−05M, 3×10^−06M, 1×10^−06M, 3×10^−07M, 1×10^−07M, 3×10^−08M, 1×10^−08M, and 3×10^−09M) of each compound in singlicate.
Test compounds: The compounds were provided as pre-weighed powders in vials. The compounds were dissolved to 1×10^−02M by adding DMSO. 100 μl of each of the resulting stock solutions were transferred into column 2 of four 96 well “master plates”
Prior to testing, the 1×10^−02M stock solutions in column 2 of the master plates were subjected to a serial, semi-logarithmic dilution using 100% DMSO as a solvent. […] Column 1 and 7 were filled with 100% DMSO as controls. Subsequently, 2×10 μl from each well of the serial diluted copy plates were aliquoted with a 96 channel pipettor into two identical sets of “compound dilution plates”.
In the process, 90 μl H2O were added to each well of a set of compound dilution plates. To minimize potential precipitation, the H2O was added to each plate only a few minutes before the transfer of the compound solutions into the assay plates. Each plate was shaken thoroughly, resulting in a “compound dilution plate/ 10% DMSO”.
For the assays, 5 μl solution from each well of the compound dilution plates/10% DMSO were transferred into the assay plates. The final volume of the assay was 50 μl. All compounds were tested at 10 final assay concentrations in the range from 1×10^−04M to 3×10^−09M, in singlicate. The final DMSO concentration in the reaction cocktails was 1% in all cases.
Recombinant protein kinases: All protein kinases were expressed in Sf9 insect cells or in E.coli as recombinant GST-fusion proteins or His-tagged proteins, either as full-length or enzymatically active fragments. All kinases were produced from human cDNAs and purified by either GSH-affinity chromatography or immobilized metal. Affinity tags were removed from a number of kinases during purification. The purity of the protein kinases was examined by SDS-PAGE/Coomassie staining, the identity was checked by mass spectroscopy.
Protein kinase assay: A radiometric protein kinase assay (^33PanQinase® Activity Assay) was used for measuring the kinase activity. All kinase assays were performed in 96-well FlashPlates™ from PerkinElmer (Boston, MA, USA) in a 50 μl reaction volume. The reaction cocktail was pipetted in four steps in the following order: • 20 μl of assay buffer (standard buffer) • 5μl of ATP solution (in H2O) • 5μl of test compound (in 10% DMSO) • 20 μl enzyme/substrate mix
The assay for all protein kinases contained 70 mM HEPES-NaOH pH 7.5, 3 mM MgCl2, 3 mM MnCl2, 3 μM Na-orthovanadate, 1.2 mM DTT, 50 μg/ml PEG20000, ATP (variable concentrations, corresponding to the apparent ATP-K. of the respective kinase), [γ-^33P]-ATP (approx. 9×10^05cpm per well), protein kinase, and substrate.
The following amounts of enzyme and substrate were used per well:
The reaction cocktails were incubated at 30° C. for 60 minutes. The reaction was stopped with 50 μl of 2% (v/v) H3PO4, plates were aspirated and washed two times with 200 μl 0.9% (w/v) NaCl. Incorporation of ^33Pi was determined with a microplate scintillation counter (Microbeta, Wallac). All assays were performed with a BeckmanCoulter/SAGIANTM Core System.
Evaluation of raw data: The median value of the counts in column 1 (n=8) of each assay plate was defined as “low control”. This value reflects unspecific binding of radioactivity to the plate in the absence of a protein kinase but in the presence of the substrate. The median value of the counts in column 7 of each assay plate (n=8) was taken as the “high control”, i.e. full activity in the absence of any inhibitor. The difference between high and low control was taken as 100% activity. […]

CDK12 = biological target: T2, CDK12 (Homo sapiens, UniProt Q9NYV4); assay: Radiometric protein kinase assay (33PanQinase), assay condition 1, thiol-free conditions; assay type: biochemical; settings: thiol-free conditions (1 mM TCEP), ATP at apparent Km
T2 construct: ProQinase (named as the party running the assay)
Procedure: Example 2 —Assay condition 1 (thiol-free conditions)
The IC50 profile of compounds was determined using protein kinase in a customized, thiol free assay. IC50 values were measured by testing 10 concentrations (1×10^−05 M to 3×10^−10 M) of each test compound in singlicate against each kinase of interest. Prior to testing, the 1×10^−03M stock solutions in column 2 of the master plates were subjected to a serial, semi-logarithmic dilution using 100% DMSO as a solvent. […] Column 1 and 7 were filled with 100% DMSO as controls. Subsequently, 2×10 microliter from each well of the serial diluted copy plates were aliquoted with a 96 channel pipettor into two identical sets of “compound dilution plates”. All plates were barcoded for automated identification and tracking purposes. IC50 values were measured by testing 10 concentrations (1×10^−05 M to 3×10^−10 M) of each compound in singlicate. All compounds were stored as powder until being solubilized in DMSO. Solubilized compounds were stored as 1×10^−02 M/100% DMSO stock solutions. Prior to the assay process, 90 microliters of H2O were added to each well of a set of compound dilution plates. To minimize potential precipitation, the H2O was added to each plate only a few minutes before the transfer of the compound solutions into the assay plates. Each plate was shaken thoroughly, resulting in compound dilution plates with a final of 10% DMSO. For each assay, 5 microliters of solution from each well of the compound dilution plates/10% DMSO were transferred into the assay plate. The final volume of the assay was 50 μl. All compounds were tested at 10 final assay concentrations in the range from 1×10^−05 M to 3×10^−10 M, in singlicate. The final DMSO concentration in the reaction cocktails was 1% in all cases. A radiometric protein kinase assay (33PanQinase® Activity Assay) was used for measuring the kinase activity of the protein kinase. All kinase assays were performed in 96-well FlashPlates™ from PerkinElmer (Boston, Mass., USA) in a 50 microliter reaction volume. The reaction cocktail was pipetted in four steps in the following order: 20 microliter of assay buffer (standard buffer) 5 microliter of ATP solution (in H2O) 5 microliter of test compound (in 10% DMSO) 20 microliter enzyme/subtrate mix. Each assay for the protein kinase contained 70 mM HEPES-NaOH pH 7.5, 3 mM MgCl2, 3 mM MnCl2, 3 microM Na-orthovanadate, 1 mM TCEP, 50 μg/ml PEG20000, ATP (corresponding to the apparent ATP-Km of the kinase, see Table A), [gamma-33P]-ATP (approx. 6×10×E5 cpm per well), with the protein kinase and relevant substrate being used in pre-determined amounts, depending on the kinase in question. For all experiments labeled as “Thiol-free”, all glutathione was exchanged from protein preparations so as to be removed from the assay and final buffer conditions contained no thiol- containing reagents. This was done so there would be no interference with the key cysteines in the proteins of interest.
For data analysis, the median value of the counts in column 1 (n=8) of each assay plate was defined as “low control”. This value reflects unspecific binding of radioactivity to the plate in the absence of a protein kinase but in the presence of the substrate. The median value of the counts in column 7 of each assay plate (n=8) was taken as the “high control”, i.e. full activity in the absence of any inhibitor. The difference between high and low control was taken as 100% activity. As part of the data evaluation the low control value from a particular plate was subtracted from the high control value as well as from all 80 “compound values” of the corresponding plate. The residual activity (in %) for each well of a particular plate was calculated by using the following formula:
Res. Activity (%)=100×[(cpm of compound−low control)/(high control−low control)] […]

T1 sequence (Q9NYV4 whole entry, the tested form may be a part): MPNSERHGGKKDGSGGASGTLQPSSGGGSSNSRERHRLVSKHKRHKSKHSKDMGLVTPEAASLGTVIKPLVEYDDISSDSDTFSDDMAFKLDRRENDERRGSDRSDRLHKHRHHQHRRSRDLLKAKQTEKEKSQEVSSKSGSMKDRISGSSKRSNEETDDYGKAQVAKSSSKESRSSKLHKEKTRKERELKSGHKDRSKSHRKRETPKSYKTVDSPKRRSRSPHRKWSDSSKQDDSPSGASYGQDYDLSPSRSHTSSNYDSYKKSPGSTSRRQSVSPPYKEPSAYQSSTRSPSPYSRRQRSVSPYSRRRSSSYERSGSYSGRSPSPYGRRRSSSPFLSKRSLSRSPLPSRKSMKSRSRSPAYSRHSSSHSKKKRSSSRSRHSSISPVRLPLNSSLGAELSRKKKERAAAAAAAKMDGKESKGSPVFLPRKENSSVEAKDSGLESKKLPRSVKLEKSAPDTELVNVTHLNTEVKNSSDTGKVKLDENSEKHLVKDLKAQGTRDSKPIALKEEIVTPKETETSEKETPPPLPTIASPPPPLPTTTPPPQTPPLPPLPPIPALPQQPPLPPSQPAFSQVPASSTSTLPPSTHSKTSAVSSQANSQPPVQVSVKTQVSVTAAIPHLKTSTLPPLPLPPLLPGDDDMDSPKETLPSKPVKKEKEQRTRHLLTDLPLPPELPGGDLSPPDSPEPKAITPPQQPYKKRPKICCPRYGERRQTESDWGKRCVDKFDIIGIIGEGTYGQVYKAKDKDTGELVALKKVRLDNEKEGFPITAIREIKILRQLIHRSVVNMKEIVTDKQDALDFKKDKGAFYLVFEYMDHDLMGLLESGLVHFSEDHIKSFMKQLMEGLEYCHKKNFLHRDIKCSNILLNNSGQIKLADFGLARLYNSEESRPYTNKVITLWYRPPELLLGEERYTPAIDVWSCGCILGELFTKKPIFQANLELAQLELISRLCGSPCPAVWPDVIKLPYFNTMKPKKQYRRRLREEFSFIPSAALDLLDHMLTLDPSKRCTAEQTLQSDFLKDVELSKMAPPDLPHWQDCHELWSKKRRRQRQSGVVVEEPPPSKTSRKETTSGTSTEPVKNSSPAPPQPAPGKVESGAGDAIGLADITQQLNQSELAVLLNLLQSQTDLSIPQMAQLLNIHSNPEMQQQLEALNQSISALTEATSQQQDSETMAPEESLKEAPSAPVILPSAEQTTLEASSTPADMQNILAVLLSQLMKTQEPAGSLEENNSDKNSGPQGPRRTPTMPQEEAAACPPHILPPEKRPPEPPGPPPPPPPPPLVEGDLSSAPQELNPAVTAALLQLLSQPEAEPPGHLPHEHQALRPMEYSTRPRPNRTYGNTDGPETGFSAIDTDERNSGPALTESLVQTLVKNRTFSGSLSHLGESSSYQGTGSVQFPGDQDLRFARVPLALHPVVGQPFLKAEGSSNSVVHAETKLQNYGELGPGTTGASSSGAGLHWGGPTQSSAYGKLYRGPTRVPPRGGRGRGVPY
T1 sequence (O75909 whole entry partner, the tested form may be a part): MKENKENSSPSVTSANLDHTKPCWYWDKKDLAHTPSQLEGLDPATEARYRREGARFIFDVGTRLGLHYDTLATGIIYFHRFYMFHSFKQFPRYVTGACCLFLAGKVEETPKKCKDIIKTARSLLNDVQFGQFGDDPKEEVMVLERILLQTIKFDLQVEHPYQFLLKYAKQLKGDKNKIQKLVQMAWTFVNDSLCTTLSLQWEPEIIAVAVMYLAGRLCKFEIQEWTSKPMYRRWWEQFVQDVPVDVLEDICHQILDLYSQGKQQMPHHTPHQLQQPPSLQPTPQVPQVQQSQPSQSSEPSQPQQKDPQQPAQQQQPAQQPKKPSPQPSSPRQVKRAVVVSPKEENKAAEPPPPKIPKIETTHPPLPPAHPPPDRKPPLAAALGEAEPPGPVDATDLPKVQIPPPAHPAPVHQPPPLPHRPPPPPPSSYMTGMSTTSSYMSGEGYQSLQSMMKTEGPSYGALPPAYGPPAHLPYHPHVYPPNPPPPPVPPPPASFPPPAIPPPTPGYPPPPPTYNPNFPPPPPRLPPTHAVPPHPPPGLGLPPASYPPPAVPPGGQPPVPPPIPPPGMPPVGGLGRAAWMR
T2 sequence (Q9NYV4 whole entry): as the sequence (Q9NYV4 whole entry, the tested form may be a part) above
T2 sequence (O75909 whole entry partner): as the sequence (O75909 whole entry partner, the tested form may be a part) above

Row | IC50 (CDK12 wt/CycK) | IC50 (CDK12) | Structure (SMILES)
1 | ≤ 100 nM | – | Cc1nc(N2CC[C@@H](Nc3ncc(Cl)c(-c4cnn5ccccc45)n3)C2)c2ccc(NC(=O)/C=C/CN(C)C)cc2n1 [Example 35, (R,E)—N-(4-(3-((5-chloro-4-(pyrazolo[1,5-a]pyridin-3-yl)pyrimidin-2-yl)amino)pyrrolidin-1-yl)-2-methylquinazolin-7-yl)-4-(dimethylamino)but-2-enamide]
2 | ≤ 100 nM | – | C=CC(=O)N(C)c1ccc2c(N3CC[C@@H](Nc4ncc(C#N)cn4)C3)nc(C3=CCN(C)CC3)cc2c1 [Example 42, (R)—N-(1-(3-((5-cyanopyrimidin-2-yl)amino)pyrrolidin-1-yl)-3-(1-methyl-1,2,3,6-tetrahydropyridin-4-yl)isoquinolin-6-yl)-N-methylacrylamide]
3 | ≤ 100 nM | – | C=CC(=O)Nc1ccc2c(N3CC[C@@H](Nc4ncc(C#N)cn4)C3)nc(N3CCOCC3)cc2c1 [Example 37, (R)—N-(1-(3-((5-cyanopyrimidin-2-yl)amino)pyrrolidin-1-yl)-3-morpholinoisoquinolin-6-yl)acrylamide]
4 | ≤ 100 nM | – | C=CC(=O)N(C)c1ccc2c(N3CC[C@@H](Nc4ncc(C#N)cn4)C3)nc(N3CCN(C)CC3)nc2c1 [Example 41, (R)—N-(4-(3-((5-cyanopyrimidin-2-yl)amino)pyrrolidin-1-yl)-2-(4-methylpiperazin-1-yl)quinazolin-7-yl)-N-methylacrylamide]
5 | – | ≤ 100 nM | C=CC(=O)Nc1ccc2c(N3CC[C@@H](Nc4ncc(Br)cn4)C3)ncnc2c1 [Example 25, (R)-N-(4-(3-((5-bromopyrimidin-2-yl)amino)pyrrolidin-1-yl)quinazolin-7-yl)acrylamide]
6 | – | ≤ 100 nM | C=CC(=O)Nc1ccc2c(N3CC[C@@H](Nc4ncc(C5CC5)cn4)C3)ncnc2c1 [Example 10, (R)-N-(4-(3-((5-cyclopropylpyrimidin-2-yl)amino)pyrrolidin-1-yl)quinazolin-7-yl)acrylamide]
7 | – | ≤ 100 nM | C=CC(=O)Nc1ccc2c(N3CC[C@@H](Nc4ncc(Cl)c(C(F)(F)F)n4)C3)ncnc2c1 [Example 9, (R)-N-(4-(3-((5-chloro-4-(trifluoromethyl)pyrimidin-2-yl)amino)pyrrolidin-1-yl)quinazolin-7-yl)acrylamide]
8 | – | ≤ 100 nM | C#Cc1cnc(N[C@@H]2CCN(c3nccc4cc(N(C)C(=O)C=C)ccc34)C2)nc1 [Example 44, (R)—N-(1-(3-((5-ethynylpyrimidin-2-yl)amino)pyrrolidin-1-yl)isoquinolin-6-yl)-N-methylacrylamide]
9 | – | ≤ 100 nM | C#Cc1cnc(N[C@@H]2CCN(c3nccc4cc(NC(=O)C=C)ccc34)C2)nn1 [Example 47, (R)—N-(1-(3-((6-ethynyl-1,2,4-triazin-3-yl)amino)pyrrolidin-1-yl)isoquinolin-6-yl)acrylamide]
10 | – | ≤ 100 nM | C=CC(=O)Nc1ccc2c(N3CC[C@@H](Nc4ncc5ccncc5n4)C3)ncnc2c1 [Example 16, (R)-N-(4-(3-(pyrido [3,4-d]pyrimidin-2-ylamino)pyrrolidin-1-yl)quinazolin-7-yl)acrylamide]
11 | – | ≤ 100 nM | C=CC(=O)N(C)c1ccc2c(N3CC[C@@H](Nc4ncc(Br)cn4)C3)nc(N3CCN(C)CC3)nc2c1 [Example 43, (R)—N-(4-(3-((5-bromopyrimidin-2-yl)amino)pyrrolidin-1-yl)-2-(4-methylpiperazin-1-yl)quinazolin-7-yl)-N-methylacrylamide]
12 | – | ≤ 100 nM | C=CC(=O)Nc1ccc2c(N3CC[C@@H](Nc4ncc(C(F)(F)F)cn4)C3)ncnc2c1 [Example 2, (R)-N-(4-(3-((5-(trifluoromethyl)pyrimidin-2-yl)amino)pyrrolidin-1-yl)quinazolin-7-yl)acrylamide]
13 | – | ≤ 100 nM | C=CC(=O)Nc1ccc2c(N3CC[C@@H](Nc4ncc(Br)cn4)C3)nnc(N3CCC3)c2c1 [Example 52, (R)—N-(4-(azetidin-1-yl)-1-(3-((5-bromopyrimidin-2-yl)amino)pyrrolidin-1-yl)phthalazin-6-yl)acrylamide]
14 | – | ≤ 100 nM | C=CC(=O)Nc1ccc2c(N3CC[C@@H](Nc4ncc(C#N)cn4)C3)nncc2c1 [Example 49, (R)—N-(1-(3-((5-cyanopyrimidin-2-yl)amino)pyrrolidin-1-yl)phthalazin-6-yl)acrylamide]
15 | – | ≤ 100 nM | C=CC(=O)Nc1ccc2c(N3CC[C@@H](Nc4ncc(C#N)cn4)C3)nccc2c1 [Example 26, (R)-N-(1-(3-((5-cyanopyrimidin-2-yl)amino)pyrrolidin-1-yl)isoquinolin-6-yl)acrylamide]
16 | – | ≤ 100 nM | C=CC(=O)Nc1ccc2c(N3CC[C@@H](Nc4ncc(Br)cn4)C3)nc(C)nc2c1 [Example 21, (R)-N-(4-(3-((5-bromopyrimidin-2-yl)amino)pyrrolidin-1-yl)-2-methylquinazolin-7-yl)acrylamide]
17 | – | ≤ 100 nM | C#Cc1cnc(N[C@@H]2CCN(c3nnc(N4CCC4)c4cc(NC(=O)C=C)ccc34)C2)nn1 [Example 53]
